From US12441703B2, “Carboxamides as modulators of sodium channels” (VERTEX PHARMACEUTICALS INCORPORATED, priority 2019, dated 2025)

Target: human NaV 1.8 (Homo sapiens, UniProt Q9Y5Y9)
Assay: E-VIPR assay for detecting and measuring NaV inhibition properties
Format: cell-based
Settings: E-VIPR assay conducted in the presence of human serum; HEK cells expressing truncated human NaV 1.8; read-out: IC50
Outline: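 Membrane-potential (coumarin/oxonol) readout after 10 s of 10 Hz biphasic electrical stimulation on E-VIPR. Compounds: 11-point 3-fold dilutions, […], 0.625% DMSO, 30 min at room temperature, human serum optional. Cells: HEK expressing truncated human NaV1.8 co-transduced with KIR2.1.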

Chain of human NaV 1.8 (Q9Y5Y9 whole entry, looked up): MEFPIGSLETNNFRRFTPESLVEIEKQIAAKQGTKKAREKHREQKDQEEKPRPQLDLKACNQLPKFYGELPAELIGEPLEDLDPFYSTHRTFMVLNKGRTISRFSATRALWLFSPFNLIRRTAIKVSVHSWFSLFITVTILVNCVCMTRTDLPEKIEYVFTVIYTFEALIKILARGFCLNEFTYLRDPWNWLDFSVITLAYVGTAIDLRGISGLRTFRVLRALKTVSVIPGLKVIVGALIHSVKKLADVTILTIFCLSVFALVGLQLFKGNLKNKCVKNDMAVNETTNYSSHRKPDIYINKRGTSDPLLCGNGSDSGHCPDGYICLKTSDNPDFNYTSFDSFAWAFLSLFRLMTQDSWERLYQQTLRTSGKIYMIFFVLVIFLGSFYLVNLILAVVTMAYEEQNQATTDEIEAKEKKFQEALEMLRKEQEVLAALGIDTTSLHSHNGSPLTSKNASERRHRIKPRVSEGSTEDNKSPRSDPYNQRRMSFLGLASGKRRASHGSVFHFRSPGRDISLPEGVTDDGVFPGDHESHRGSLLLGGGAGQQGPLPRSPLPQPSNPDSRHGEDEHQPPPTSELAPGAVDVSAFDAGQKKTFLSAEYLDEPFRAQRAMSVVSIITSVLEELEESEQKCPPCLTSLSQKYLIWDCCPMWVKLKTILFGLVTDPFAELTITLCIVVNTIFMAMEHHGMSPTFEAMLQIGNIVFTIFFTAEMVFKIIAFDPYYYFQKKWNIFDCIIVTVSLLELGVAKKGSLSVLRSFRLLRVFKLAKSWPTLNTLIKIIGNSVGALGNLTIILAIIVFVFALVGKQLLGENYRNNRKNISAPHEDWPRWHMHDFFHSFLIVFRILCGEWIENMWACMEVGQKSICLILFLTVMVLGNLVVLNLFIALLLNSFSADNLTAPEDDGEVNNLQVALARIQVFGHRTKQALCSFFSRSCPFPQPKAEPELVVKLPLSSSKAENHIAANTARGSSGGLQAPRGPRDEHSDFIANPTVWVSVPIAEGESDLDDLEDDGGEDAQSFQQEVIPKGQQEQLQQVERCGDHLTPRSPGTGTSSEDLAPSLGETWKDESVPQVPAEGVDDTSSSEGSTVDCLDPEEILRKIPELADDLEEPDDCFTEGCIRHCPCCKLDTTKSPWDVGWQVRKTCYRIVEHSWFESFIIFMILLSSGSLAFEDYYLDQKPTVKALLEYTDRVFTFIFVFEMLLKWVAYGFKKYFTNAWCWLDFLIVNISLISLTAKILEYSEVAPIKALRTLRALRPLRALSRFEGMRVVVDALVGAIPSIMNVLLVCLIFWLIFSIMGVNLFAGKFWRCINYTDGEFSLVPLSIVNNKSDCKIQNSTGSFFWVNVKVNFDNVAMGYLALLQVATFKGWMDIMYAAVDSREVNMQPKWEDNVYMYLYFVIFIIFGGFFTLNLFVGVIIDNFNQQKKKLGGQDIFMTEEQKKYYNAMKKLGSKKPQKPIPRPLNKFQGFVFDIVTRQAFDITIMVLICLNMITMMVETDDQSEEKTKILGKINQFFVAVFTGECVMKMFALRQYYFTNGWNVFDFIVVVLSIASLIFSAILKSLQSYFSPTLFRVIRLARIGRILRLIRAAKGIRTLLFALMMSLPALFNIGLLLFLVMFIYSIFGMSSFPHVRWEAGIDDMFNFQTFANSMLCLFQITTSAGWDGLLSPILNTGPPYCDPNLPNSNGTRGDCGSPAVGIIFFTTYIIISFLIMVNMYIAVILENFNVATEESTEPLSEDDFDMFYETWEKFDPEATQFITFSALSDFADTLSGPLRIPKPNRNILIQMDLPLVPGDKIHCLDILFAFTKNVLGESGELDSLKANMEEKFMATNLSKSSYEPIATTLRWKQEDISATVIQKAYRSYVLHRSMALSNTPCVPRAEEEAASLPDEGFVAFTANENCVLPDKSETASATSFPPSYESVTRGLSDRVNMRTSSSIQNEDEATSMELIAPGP

In order of rising IC50:
1. COc1cc(OC(F)(F)F)ccc1Oc1cc(C2CC3CCC2C3)cc(F)c1C(=O)Nc1ccnc(C(N)=O)c1 (centres unmarked) [Compound 1020, 4-[[2-fluoro-6-[2-methoxy-4-(trifluoromethoxy)phenoxy]-4-norboman-2-yl-benzoyl]amino]pyridine-2-carboxamide]  9 nM
2. [2H]C([2H])([2H])Oc1cc(OC(F)(F)F)ccc1Oc1cc(C2=CCCC2)cc(F)c1C(=O)Nc1ccnc(C(N)=O)c1 [Compound 1010, 4-[[4-(cyclopenten-1-yl)-2-fluoro-6-[2-(trideuteriomethoxy)-4-(trifluoromethoxy)phenoxy]benzoyl]amino]pyridine-2-carboxamide]  13 nM
3. COc1cc(OC(F)(F)F)ccc1Oc1cc(C2=CCC(C(F)(F)F)CC2)cc(F)c1C(=O)Nc1ccnc(C(N)=O)c1 (centres unmarked) [Compound 1013, 4-[[2-fluoro-6-[2-methoxy-4-(trifluoromethoxy)phenoxy]-4-[4-(trifluoromethyl)cyclohexen-1-yl]benzoyl]amino]pyridine-2-carboxamide]  13 nM
4. COc1cc(OC(F)(F)F)ccc1Oc1cc(C2=CC3CCC2C3)cc(F)c1C(=O)Nc1ccnc(C(N)=O)c1 (centres unmarked) [Compound 1014, 4-[[4-(2-bicyclo[2.2.1]hept-2-enyl)-2-fluoro-6-[2-methoxy-4-(trifluoromethoxy)phenoxy]benzoyl]amino]pyridine-2-carboxamide]  33 nM
5. COc1cc(OC(F)(F)F)ccc1Oc1cc(C2=CCC(C(C)(C)C)CC2)cc(F)c1C(=O)Nc1ccnc(C(N)=O)c1 (centres unmarked) [Compound 1016, 4-[[4-(4-tert-butylcyclohexen-1-yl)-2-fluoro-6-[2-methoxy-4-(trifluoromethoxy)phenoxy]benzoyl]amino]pyridine-2-carboxamide]  60 nM
6. [2H]C([2H])([2H])Oc1cc(OC(F)(F)F)ccc1Oc1cc(C2CCOCC2)cc(F)c1C(=O)Nc1ccnc(C(N)=O)c1 [Compound 1019, 4-[[2-fluoro-4-tetrahydropyran-4-yl-6-[2-(trideuteriomethoxy)-4-(trifluoromethoxy)phenoxy]benzoyl]amino]pyridine-2-carboxamide]  79 nM
7. [2H]C([2H])([2H])Oc1cc(OC(F)(F)F)ccc1Oc1cc(C2CCOC2)cc(F)c1C(=O)Nc1ccnc(C(N)=O)c1 (centres unmarked) [Compound 1018, 4-[[2-fluoro-4-tetrahydrofuran-3-yl-6-[2-(trideuteriomethoxy)-4-(trifluoromethoxy)phenoxy]benzoyl]amino]pyridine-2-carboxamide]  130 nM
8. [2H]C([2H])([2H])Oc1cc(OC(F)(F)F)ccc1Oc1cc(C2=CCC(OC)CC2)cc(F)c1C(=O)Nc1ccnc(C(N)=O)c1 (centres unmarked) [Compound 1009, 4-[[2-fluoro-4-(4-methoxycyclohexen-1-yl)-6-[2-(trideuteriomethoxy)-4-(trifluoromethoxy)phenoxy]benzoyl]amino]pyridine-2-carboxamide]  170 nM
9. [2H]C([2H])([2H])Oc1cc(OC(F)(F)F)ccc1Oc1cc(-c2ccc(C#N)cc2)cc(F)c1C(=O)Nc1ccnc(C(N)=O)c1 [Compound 1012, 4-[[4-(4-cyanophenyl)-2-fluoro-6-[2-(trideuteriomethoxy)-4-(trifluoromethoxy)phenoxy]benzoyl]amino]pyridine-2-carboxamide]  190 nM
10. COc1cc(OC(F)(F)F)ccc1Oc1cc(C2=CCC3(CC2)OCCO3)cc(F)c1C(=O)Nc1ccnc(C(N)=O)c1 [Compound 1015, 4-[[4-(1,4-dioxaspiro[4.5]dec-7-en-8-yl)-2-fluoro-6-[2-methoxy-4-(trifluoromethoxy)phenoxy]benzoyl]amino]pyridine-2-carboxamide]  360 nM
11. [2H]C([2H])([2H])Oc1cc(OC(F)(F)F)ccc1Oc1cc(-c2cccc(C#N)c2)cc(F)c1C(=O)Nc1ccnc(C(N)=O)c1 [Compound 1011, 4-[[4-(3-cyanophenyl)-2-fluoro-6-[2-(trideuteriomethoxy)-4-(trifluoromethoxy)phenoxy]benzoyl]amino]pyridine-2-carboxamide]  470 nM
